Patent publication US20250212876A1, “METHOD FOR CONTROLLING PLANT DISEASES” (SUMITOMO CHEMICAL COMPANY, LIMITED, priority 2022, published 2025)

Columns and labels:
Type in all cases: cell-based
[1] = tested on: Barley scald fungus (Rhynchosporium secalis); experiment: Test Example 3: control test against barley scald fungus, titer plate growth; details: 150 ppm in DMSO, 1 μL + 150 μL PDB broth; 18° C., 7 days; absorbance at 550 nm
Description: (§1) The untreated groups in the Test Example 3, the Test Example 5 and the Test Example 6 represents a treated group in which the procedures are carried out under the same conditions as those described in each of Test Examples except that DMSO is dispensed in place of a diluted DMSO solution containing the Present compound. The untreated groups in the Test Example 7 and the Test Example 15 represents a test in which the procedures are carried out under the same conditions as those described in each of the Test Examples except that DMSO is dispensed in place of a diluted DMSO solution containing the present compound. […]
The present compound 77 was diluted with DMSO so as to contain 150 ppm, and 1 μL of the dilution solutions were dispensed into titer plate (96 well), and thereafter, thereto was then dispensed 150 μL of a potato dextrose broth (PDB broth) to which conidia of Rhynchosporium secalis were inoculated in advance. This plate was cultured at 18° C. for 7 days, thereby allowing Rhynchosporium secalis to undergo proliferation, and the absorbance at 550 nm of each well of the titer plate was then measured to determine a degree of growth of the Rhynchosporium secalis.

[2] = tested on: Peach scab fungus (Cladosporium carpophilum); experiment: Test Example 5: control test against peach scab fungus, titer plate growth; details: 150 ppm in DMSO, 1 μL + 150 μL PDB broth; 18° C., 5 days; absorbance at 550 nm
Description: as §1
The present compound 77 was diluted with DMSO so as to contain 150 ppm, and 1 μL of the dilution solutions were dispensed into titer plate (96 well), and thereafter, thereto was then dispensed 150 μL of a potato dextrose broth (PDB broth) to which conidia of Cladosporium carpophilum were inoculated in advance. This plate was cultured at 18° C. for 5 days, thereby allowing Cladosporium carpophilum to undergo proliferation, and the absorbance at 550 nm of each well of the titer plate was then measured to determine a degree of growth of the Cladosporium carpophilum.

[3] = tested on: Rice brown spot fungus (Cochliobolus miyabeanus); experiment: Test Example 6: control test against rice brown spot fungus, titer plate growth; details: 150 ppm in DMSO, 1 μL + 150 μL YB liquid medium; 23° C., 3 days; absorbance at 550 nm
Description: The untreated groups in the Test Example 3, the Test Example 5 and the Test Example 6 represents a treated group in which the procedures are carried out under the same conditions as those described in each of Test Examples except that DMSO is dispensed in place of a diluted DMSO solution containing the Present compound. The untreated groups in the Test Example 7 and the Test Example 15 represents a test in which the procedures are carried out under the same conditions as those described in each of the Test Examples except that DMSO is dispensed in place of a diluted DMSO solution containing the present compound. Also, the untreated groups in the Test Example 8, the Test Example 9, the Test Example 10 and the Test Example 11 represents a test in which a diluted aqueous solution of the formulation containing the present compound isn't sprayed.
The present compound 77 was diluted with DMSO so as to contain 150 ppm, and 1 μL of the dilution solutions were dispensed into titer plate (96 well), and thereafter, thereto was then dispensed 150 μL of YB liquid medium to which conidia of Cochliobolus miyabeanus were inoculated in advance. This plate was cultured at 23° C. for 3 days, thereby allowing Cochliobolus miyabeanus to undergo proliferation, and the absorbance at 550 nm of each well of the titer plate was then measured to determine a degree of growth of the Cochliobolus miyabeanus.

Measured: growth in the treated well compared to the growth in an untreated well

O=S(=O)(c1cccc(-c2cc(F)c(Cl)c(F)c2)c1)c1ccncn1 [compound 77]
≤ 50%: [1] | [2] | [3]
